# Values quoted from earlier work, collected in patent US4540572A, “Gel-like ointment containing indometacin” (Mepha AG, priority 1983, dated 1985).
# System: human skin
# Conditions: from the conventional ointment bases
smiles,measurement,value
COc1ccc2c(c1)c(CC(=O)O)c(C)n2C(=O)c1ccc(Cl)cc1 [indometacin],absorption through the human skin,lack of its absorption
